Results published in patent US20080241919A1, “Defined media for pluripotent stem cell culture” (The Burnham Institute of Medical Research, priority 2003, published 2008).

Assays:
[1] = system: human embryonic stem cells (hESCs); assay: Short-term proliferation assay (growth rate) of hESCs in defined hESC media; type: cell-based; details: feeder-free
Description: (b) Short-term proliferation assays—assessing cell number. The growth rate of hESCs maintained under the feeder-free condition in the defined hESC media containing 0, 4, 10, 20, 30, or 50 ng/ml bFGF were determined and compared to that of hESCs maintained on laminin/collagen-coated plates in the MEF-conditioned media (MEF-CM) containing 10 ng/ml bFGF (see, for example, Xu, C., et al., Nat. Biotechnol. 19, 971-974 (2001)).
To further assess the effect of bFGF on hESC undifferentiated growth, short-term proliferation assays of hESCs maintained under the feeder-free condition in the defined hESC media containing 0, 4, 10, 20, 30, or 50 ng/ml bFGF were performed. The growth rate (FIG. 1b) and the percentage of undifferentiated colonies (FIG. 1c) in response to bFGF doses were compared to those of hESCs maintained in MEF-conditioned media (MEF-CM) (the latter also actually “spiked” with an additional 10 ng/ml bFGF). […] To further affirm the role of bFGF on hESC undifferentiated growth, hESCs carrying a reporter gene (enhanced green fluorescence protein [EGFP]) under control of Oct-4 promoter were generated (via lentiviral-mediated transduction).

[2] = system: human embryonic stem cells (hESCs); assay: bFGF dose-response, maintenance of undifferentiated hESCs under feeder-free condition on laminin/collagen-coated plates; type: cell-based
Description: (c) bFGF dose-response assays—assessing maintenance of the undifferentiated state.
To discover the minimal essential conditions needed to support the long-term growth of undifferentiated hESCs, morphological analysis was used to assess the developmental stage of hESCs at different times. For these analyses hESCs were grown in a 6- or 12-well plate to maturation (day 6 or 7 after seeding) before being fixed and visualized under a phase contrast microscope. Cellular immunofluorescence was also employed to assess the state of differentiation of hESCs. To perform these studies, hESCs were grown to maturation (day 6 or 7 after seeding) in a 12- or 24-well plate with a round cover slide in the bottom of each well. The cells were then fixed with 4% paraformaldehyde and blocked in PBS buffer containing 0.2% Triton X-100 and 2% BSA. Next, the cells were incubated with a primary antibody (Oct-4, SSEA-1, SSEA-3, SSEA-4, Tra-1-60, Tra-1-81, alkaline phosphatase, Myc, Map-2, Nkx2.5, bFGF (Santa Cruz Biotechnology, Inc.; Santa Cruz, Calif., world wide web: scbt.com) nestin, tyrosine hydroxylase (Chemicon International, Temecula, Calif., world wide web: chemicon.com), beta-tubulin (Sigma), p300, Tip60, or acetylated H4 (K5, 8, 12, 16) (Upstate Biotechnology, Lake Placid, N.Y., world wide web: upstate.com) in wash buffer (0.1% Triton X-100 in PBS) at 4° C. overnight, and then with secondary antibody (Molecular Probe; Eugene, Oreg., world wide web: probes.com) in wash buffer at room temperature for 45 minutes. After further staining with DAPI, cells were mounted onto a microscope slide and visualized under an immunofluorescence and deconvolution microscope. The state of differentiation of hESC was further assessed by generating (via lentiviral-mediated transduction) hESCs carrying a reporter gene (enhanced green fluorescence protein (EGFP)) under control of the Oct-4 promoter. Using these transfected hESCs (carrying Oct-4 driven EGFP), the undifferentiated state of hESCs can be visualized by green fluorescence (indicating Oct-4 expression).
The mechanism by which MEF-conditioned media exerts these effects is unknown, and it could involve the presence of growth factors, removal of toxic factors from the medium, or both. Based on the discovery that bFGF (at relatively high concentrations) promotes undifferentiated growth of hESCs on HFFs, it was decided to test whether bFGF promotes undifferentiated growth of hESCs on matrix proteins in the absence of feeder cells. Gelatin pre-coated plates were incubated with a commercially-available combination of laminin and collagen known as Matrigel (Growth factor reduced, Becton Dickinson) [diluted 1:30 in cold DMEM/F-12] at 4° C. overnight. The growth of hESCs on laminin/collagen-coated plates in the defined hESC media containing 20 ng/ml bFGF was examined. […]
To further assess the effect of bFGF on hESC undifferentiated growth, short-term proliferation assays of hESCs maintained under the feeder-free condition in the defined hESC media containing 0, 4, 10, 20, 30, or 50 ng/ml bFGF were performed. […] To further affirm the role of bFGF on hESC undifferentiated growth, hESCs carrying a reporter gene (enhanced green fluorescence protein [EGFP]) under control of Oct-4 promoter were generated (via lentiviral-mediated transduction).

[3] = system: Oct-4 expression in hESCs; assay: hESCs carrying Oct-4 promoter-driven EGFP reporter, with or without bFGF; type: cell-based, human
Description: (d) bFGF is critical for sustaining undifferentiated growth of hESCs carrying an Oct-4-driven reporter gene. hESCs carrying a reporter gene (enhanced green fluorescence protein [EGFP]) that is under control of the Oct-4 promoter was generated via lentiviral-mediated transduction.
FIG. 6: (a) Growth of hESCs carrying an Oct-4-driven reporter gene in the presence or absence of bFGF. hESCs carrying a reporter gene (enhanced green fluorescence protein [EGFP]) that is under control of the Oct-4 promoter was generated via lentiviral-mediated transduction. Transfected hESCs were cultivated under the feeder-free conditions in the defined media with bFGF (20 ng/ml) or without bFGF for 4 days. […] The cells were further dissociated and analyzed on a BD FacsSort instrument after staining with 7-aminoactinomycin D (7-AAD) to eliminate the dead cells [E]. With FACS-sorting, significant increases (200%) of Oct4-EGFP negative cells were observed after withdrawal bFGF for 4 days. (Note the actual percentage of Oct4-EGFP negative cells in the absence of bFGF should be even higher, because it takes around 2 days for the green fluorescence to be completely quenched after Oct-4 expression has been turned off.) (b) bFGF concentration in MEF-CM. Growth-arrested MEFs were obtained from Specialty Media (Phillipsburg, N.J.). […] 50 μl of concentrates was loaded onto a SDS/PAGE gel and analyzed by Western blot. […]
To discover the minimal essential conditions needed to support the long-term growth of undifferentiated hESCs, morphological analysis was used to assess the developmental stage of hESCs at different times. […] The state of differentiation of hESC was further assessed by generating (via lentiviral-mediated transduction) hESCs carrying a reporter gene (enhanced green fluorescence protein (EGFP)) under control of the Oct-4 promoter. Using these transfected hESCs (carrying Oct-4 driven EGFP), the undifferentiated state of hESCs can be visualized by green fluorescence (indicating Oct-4 expression). […]

## bFGF: basic fibroblast growth factor, growth factor added to the defined hESC media
[1]; bFGF 10 to 50 ng/ml, compared with MEF-CM
  growth rate of hESCs: growth rate comparable to that maintained in MEF-CM
[1]; low concentration of bFGF (4 ng/ml), defined media
  growth of hESCs: significantly slow growth
[2]; absence of bFGF, laminin/collagen, first passage
  hESC colonies with completely differentiated morphology that ceased expressing Oct-4: approximately 80%
[2]; bFGF 30 and 50 ng/ml versus 20 ng/ml, 7 days
  percentage of undifferentiated hESC colonies at higher dosages: slightly decreased percentages of undifferentiated hESC colonies
[2]; defined hESC media containing 20 ng/ml bFGF, laminin/collagen-coated plates, each passage, day 7
  hESC colonies highly compact and undifferentiated (morphology, Oct-4, SSEA-4, Tra-1-60, Tra-1-81 expression): Over 80%
[2]; low concentration of bFGF (4 ng/ml), feeder-free, defined media
  differentiation rate of hESCs: high differentiation rates
[2]; tested 0, 4, 10, 20, 30, 50 ng/ml, 7 days
  bFGF concentration maintaining the optimal proportion of undifferentiated hESCs, comparable to MEF-CM: 20 ng/mL
[3]; absence of bFGF, first passage (day 7 after seeding)
  cells inside colonies with differentiated morphology that ceased Oct-4 expression: more than 70%
[3]; defined media containing 20 ng/ml bFGF, feeder-free
  morphology and Oct-4-driven EGFP fluorescence of hESC colonies: undifferentiated morphology and strong green fluorescence
[3]; withdrawal of bFGF for 4 days
  increase of Oct4-EGFP negative cells by FACS: 200%
